Measurements: ChEMBL document CHEMBL3774322, “New orally active diphenylmethyl-based ester analogues of dihydroartemisinin: Synthesis and antimalarial assessment against multidrug-resistant Plasmodium yoelii nigeriensis in mice” (Bioorg Med Chem Lett, 2016)
The source made the active and inactive calls. The rule behind the calls is not given here.

How the values were obtained:
[1] = test system: Plasmodium yoelii nigeriensis; test: Antimalarial activity against blood stage multidrug-resistant Plasmodium yoelii nigeriensis infected swiss mouse assessed as suppression of parasitaemia at 12 mg/kg, po administered once daily for 3 days measured on day 4 by microscopic analysis relative to control; type: functional
[2] = Lipophilicity, logP of compound; type: physicochemical; settings: octanol/water
[3] = test system: Plasmodium yoelii nigeriensis; test: Antimalarial activity against blood stage multidrug-resistant Plasmodium yoelii nigeriensis infected swiss mouse assessed as protection […] at 24 mg/kg, po administered once daily for 3 days measured on day 4 and subsequently twice a week up to 28 days by microscopy; type: functional
[4] = test system: Plasmodium yoelii nigeriensis; test: Antimalarial activity against blood stage multidrug-resistant Plasmodium yoelii nigeriensis infected swiss mouse assessed as suppression of parasitaemia at 48 mg/kg, po administered once daily for 3 days measured on day 4 by microscopic analysis relative to control; type: functional
[5] = test system: Plasmodium yoelii nigeriensis; test: Antimalarial activity against blood stage multidrug-resistant Plasmodium yoelii nigeriensis infected swiss mouse assessed as suppression of parasitaemia at 24 mg/kg, po administered once daily for 3 days measured on day 4 by microscopic analysis relative to control; type: functional
[6] = test system: Plasmodium yoelii nigeriensis; test: (§1) Antimalarial activity against blood stage multidrug-resistant Plasmodium yoelii nigeriensis infected swiss mouse assessed as protection against Plasmodium yoelii nigeriensis infection at 48 mg/kg, po administered once daily for 3 days measured on day 4 and subsequently twice a week up to 28 days by microscopy; type: functional
[7] = test system: Plasmodium yoelii nigeriensis; test: Antimalarial activity against blood stage multidrug-resistant Plasmodium yoelii nigeriensis infected swiss mouse assessed as protection against Plasmodium yoelii nigeriensis infection at 12 mg/kg, po administered once daily for 3 days measured after 28 days by microscopy; type: functional, organism-based
[8] = test system: Plasmodium yoelii nigeriensis; test: as §1, with “12” for “48”; type: functional
[9] = test system: Plasmodium yoelii nigeriensis; test: Antimalarial activity against blood stage multidrug-resistant Plasmodium yoelii nigeriensis infected swiss mouse assessed as protection […] at 24 mg/kg, po administered once daily for 3 days measured after 28 days by microscopy; type: functional, organism-based
[10] = test system: Plasmodium yoelii nigeriensis; test: Antimalarial activity against blood stage multidrug-resistant Plasmodium yoelii nigeriensis infected swiss mouse assessed as protection against […] infection at 6 mg/kg, po administered once daily for 3 days measured on day 4 and subsequently twice a week up to 28 days by microscopy; type: functional, organism-based
[11] = test system: Plasmodium yoelii nigeriensis; test: Antimalarial activity against blood stage multidrug-resistant Plasmodium yoelii nigeriensis infected swiss mouse assessed as protection against […] infection at 6 mg/kg, po administered once daily for 3 days measured after 28 days by microscopy; type: functional, organism-based
[12] = test system: Plasmodium yoelii nigeriensis; test: Antimalarial activity against blood stage multidrug-resistant Plasmodium yoelii nigeriensis infected swiss mouse assessed as suppression of parasitaemia at 6 mg/kg, po administered once daily for 3 days measured on day 4 by microscopic analysis relative to control; type: functional

Structure (SMILES) | inhibition in vivo at 12 mg/kg [1] [%] | logP [2] | Activity [3] | inhibition in vivo at 48 mg/kg [4] [%] | inhibition in vivo at 24 mg/kg [5] [%] | Activity [6] [%] | Activity [7] | Activity [8] | Activity [9] | Activity [10] | Activity [11] | inhibition in vivo at 6 mg/kg [12] [%]
C[C@H]1[C@H](OC(=O)CC(c2ccc(Cl)cc2)c2ccc(Cl)cc2)O[C@@H]2O[C@@]3(C)CC[C@H]4[C@H](C)CC[C@@H]1[C@@]24OO3 | 96 | 8.27 | 100% | 100 | 100 | 100 | inactive | inactive | inactive |  |  | 
C[C@H]1[C@H](OC(=O)C(c2ccccc2)c2ccccc2)O[C@@H]2O[C@@]3(C)CC[C@H]4[C@H](C)CC[C@@H]1[C@@]24OO3 | 100 | 6.97 | 100% | 100 | 100 | 100 |  | 100% |  | inactive | inactive | 100
C[C@H]1[C@H](OC(=O)CC(c2ccc(F)cc2)c2ccc(F)cc2)O[C@@H]2O[C@@]3(C)CC[C@H]4[C@H](C)CC[C@@H]1[C@@]24OO3 | 100 | 7.47 | 100% | 100 | 100 | 100 |  | 80% |  | inactive | inactive | 100
COc1ccc(C(CC(=O)O[C@@H]2O[C@@H]3O[C@@]4(C)CC[C@H]5[C@H](C)CC[C@@H]([C@H]2C)[C@@]35OO4)c2ccc(OC)cc2)cc1 | 100 | 6.9 | 100% | 100 | 100 | 100 |  | 80% |  | inactive | inactive | 100
C[C@H]1[C@H](OC(=O)CC(c2ccccc2)c2ccccc2)O[C@@H]2O[C@@]3(C)CC[C@H]4[C@H](C)CC[C@@H]1[C@@]24OO3 | 100 | 7.15 | 100% | 100 | 100 | 100 | inactive | inactive | inactive |  |  | 
CC(=O)O[C@@H]1O[C@@H]2O[C@@]3(C)CC[C@H]4[C@H](C)CC[C@@H]([C@H]1C)[C@@]24OO3 |  | 3.37 | inactive | 100 | 99 |  |  |  |  |  |  | 
CCCCCCC(=O)O[C@@H]1O[C@@H]2O[C@@]3(C)CC[C@H]4[C@H](C)CC[C@@H]([C@H]1C)[C@@]24OO3 |  | 5.7 |  | 100 | 100 | 100 |  |  |  |  |  | 
CCCCCC(=O)O[C@@H]1O[C@@H]2O[C@@]3(C)CC[C@H]4[C@H](C)CC[C@@H]([C@H]1C)[C@@]24OO3 |  | 5.28 | inactive | 100 | 100 | 100 |  |  |  |  |  | 
C[C@H]1[C@H](OC(=O)CCc2ccccc2)O[C@@H]2O[C@@]3(C)CC[C@H]4[C@H](C)CC[C@@H]1[C@@]24OO3 |  | 5.63 |  | 100 | 100 | 100 |  |  |  |  |  | 
C[C@H]1[C@H](OC(=O)CC(c2ccc(Br)cc2)c2ccc(Br)cc2)O[C@@H]2O[C@@]3(C)CC[C@H]4[C@H](C)CC[C@@H]1[C@@]24OO3 | 100 | 8.81 | 100% | 100 | 100 | 100 | inactive | inactive | inactive |  |  | 
